From patent US5217986A, “Anti-allergy agent” (Harbor Branch Oceanographic Institution, Inc., priority 1992, dated 1993)

Assays:
[1] = biological target: T1, H3 receptor (Cavia porcellus, UniProt Q9JI35); test: H3 receptor binding assay ([3H]R-α-methylhistamine, guinea pig brain membranes)
T1 construct: The source of the H3 receptors in this experiment was guinea pig brain; from tissue; host or cells: guinea pig brain membranes
Experimental: The source of the H3 receptors in this experiment was guinea pig brain. The animals used weighed 400-600 g. The tissue was homogenized using a Polytron in a solution of 50 mM Tris, pH 7.5. The final concentration of tissue in the homogenization buffer was 10% w/v. The homogenates were centrifuged at 1000× g for 10 minutes in order to remove clumps of tissue and debris. The resulting supermatants were then centrifuged at 50,000× g for 20 minutes in order to sediment the membranes, which were next washed 3 times in homogenization buffer (50,000× g for 20 minutes each). The membranes were frozen and stored at -70° C. until needed.
The compound to be tested was dissolved in DMSO (dimethyl sulfoxide) and then diluted into the binding buffer (50 mM Tris, pH 7.5) such that the final concentration was 2 μg/mL with 0.1% DMSO. Membranes were then added (400 μg of protein) to the reaction tubes. The reaction was started by the addition of 3 nM [^3 H]R-α-methylhistamine (8.8 Ci/mmol) and incubated at 30° C. for 30 minutes. Bound ligand was separated from unbound ligand by filtration, and the amount of radioactive ligand bound to the membranes was quantitated by liquid scintillation spectrometry. The incubation was performed in duplicate and the standard error was less than 10%.

[2] = system: guinea pig ileum; test: Guinea pig ileum assay (inhibition of Rα-methylhistamine effect on electrical field stimulated contractions)
Experimental: Male guinea pigs (450-500 g) were sacrificed by cervical dislocation. Portions of the ileum (20-40 cm) were removed and placed in Tyrodes solution (NaCl, 8.0; KCl, 0.2; MgCl2.6H2 O, 0.2; CaCl2, 0.13; NaH2 PO4, 0.06; dextrose, 1.0; NaHCO3, 1.0 g/l). The ilea were cut into 2.5 cm segments, mounted between platinum wire coaxial electrodes and placed in water-jacketed organ baths containing 25 ml of the Tyrodes solution. Bath fluid temperature was maintained at 37° C. and aerated with 95% 02-5% CO2. The muscles were suspended from isometric force transducers (Grass FT03C) under 0.3 g resting tension. Contractions were amplified on a Buxco tension monitor and recorded on a Harvard polygraph. […] Once this 80% response was determined it was evoked every 60 seconds throughout the experiment. […]
Rα-methylhistamine inhibits the electrical field stimulated contractions of the guinea pig ileum and was used as the H3 agonist reference standard. H3 agonists were studied for their ability to inhibit the electrical field stimulated contractions and their activity was expressed as a percentage of the maximum Rα-methylhistamine effect. […]
Relative potency for agonists was determined from the pD2 (Furchgott, R. F., The pharmacology of Vascular Smooth Muscle. Pharm. Rev. 7, 183, 1955.) calculations. Relative potency for antagonists was determined from pA2 calculations. […]

T1 sequence (Q9JI35 whole entry): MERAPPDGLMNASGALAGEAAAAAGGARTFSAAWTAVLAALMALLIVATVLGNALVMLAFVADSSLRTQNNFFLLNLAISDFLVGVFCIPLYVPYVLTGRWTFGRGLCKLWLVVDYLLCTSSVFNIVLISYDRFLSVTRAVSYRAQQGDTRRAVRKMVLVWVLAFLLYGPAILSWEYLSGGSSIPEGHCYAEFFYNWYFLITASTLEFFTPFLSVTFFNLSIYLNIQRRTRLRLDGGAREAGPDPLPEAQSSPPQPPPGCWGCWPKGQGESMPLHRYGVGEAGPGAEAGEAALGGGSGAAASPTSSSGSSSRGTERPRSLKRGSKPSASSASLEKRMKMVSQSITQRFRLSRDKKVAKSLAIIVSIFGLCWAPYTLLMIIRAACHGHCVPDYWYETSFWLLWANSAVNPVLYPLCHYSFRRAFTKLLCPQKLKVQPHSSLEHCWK

## COc1ccc(CC(=NO)C(=O)NCCc2c[nH]cn2)cc1Br [verongamine]
[1]; guinea pig brain membranes, 3 nM [3H]R-α-methylhistamine, 30° C., 30 minutes, pH 7.5
  IC50: 498 nM
[1]; no concentration stated
  activity in an H3 receptor assay: active
[2]; @ 1 μg/mL, 1 μM chlorpheniramine present, 37° C.
  Guinea Pig Ileum: antagonist
[2]; no concentration stated
  activity on guinea pig ileum: H3 antagonist
